In patent US10273503B2, “Compounds and methods for enhancing viral gene transfer to human hematopoietic cells” (UNIVERSTÉ DE MONTRÉAL, priority 2015, dated 2019):

system: human CD34+ cells; experiment: Expansion of human CD34+ cells (EC50, CD34+CD45RA- cell count); format: cell-based; conditions: Homo sapiens, concentration that results in a 50% increase in CD34+CD45RA- cell count compared to vehicle cultures (DMSO); read-out: Biological data (EC50)*

| Structure (SMILES) | EC50 [µM] |
| --- | --- |
| COC(=O)c1ccc2c(c1)[nH]c1ncnc(NCCCCN(C)C)c12 [Cmpd 10] | 0.25 to 0.5 |
| COC(=O)c1ccc2c(c1)[nH]c1ncnc(NCCN(C)C)c12 [Cmpd 11] | 0.1 to 0.25 |
| COC(=O)c1ccc2c(c1)[nH]c1ncnc(N3CCC(N4CCCCC4)CC3)c12 [Cmpd 20] | 0.1 to 0.25 |
| COC(=O)c1ccc2c(c1)[nH]c1nc(Cc3ccsc3)nc(NCCCN3CCCCC3)c12 [Cmpd 25] | < 0.1 |
| COC(=O)c1ccc2c(c1)[nH]c1nc(Cc3ccc4ccccc4c3)nc(NCCCN3CCCCC3)c12 [Cmpd 27] | 0.1 to 0.25 |
| COC(=O)c1ccc2c(c1)[nH]c1nc(C(C)c3ccccc3)nc(NCCCN3CCCCC3)c12 (stereo not drawn) [Cmpd 31] | < 0.1 |
| COC(=O)c1ccc2c(c1)[nH]c1nc(Cc3ccccc3)nc(NCCCN3CCCCC3)c12 [Cmpd 34] | < 0.1 |
| COC(=O)c1ccc2c(c1)[nH]c1nc(Cc3cccc(Br)c3)nc(NCCCN3CCCCC3)c12 [Cmpd 35] | < 0.1 |
| COC(=O)c1ccc2c(c1)[nH]c1nc(Cc3ccccc3C)nc(NCCCN3CCCCC3)c12 [Cmpd 36] | < 0.1 |
| N#Cc1ccc2c(c1)[nH]c1nc(Cc3ccccc3)nc(NCCCN3CCCCC3)c12 [Cmpd 43] | 0.25 to 0.5 |
| CN(C)C1CCC(Nc2nc(Cc3ccccc3)nc3[nH]c4cc(-c5nnn(C)n5)ccc4c23)CC1 (stereo not drawn) [Cmpd 46] | < 0.1 |
| COC(=O)c1ccc2c(c1)[nH]c1nc(Cc3ccccc3)nc(NCCCN(C)CCCN)c12 [Cmpd 50] | < 0.1 |
| COC(=O)c1ccc2c(c1)[nH]c1nc(Cc3ccccc3)nc(NCCCN(C)CCCNC(=O)CCCC[C@@H]3SC[C@@H]4NC(=O)N[C@@H]43)c12 [Cmpd 56] | 0.25 to 0.5 |
| COC(=O)c1cnc2c(c1)[nH]c1nc(Cc3ccccc3)nc(NCCCN3CCCCC3)c12 [Cmpd 60] | 0.25 to 0.5 |
| COC(=O)c1cnc2c(c1)[nH]c1nc(Cc3ccccc3)nc(N(C)CCCN3CCCCC3)c12 [Cmpd 65] | < 0.1 |
| COC(=O)c1cnc2c(c1)[nH]c1nc(Cc3ccccc3C)nc(NCCCN3CCCCC3)c12 [Cmpd 66] | 0.25 to 0.5 |

Results, then the compound that gave them:

| EC50 [µM] | Structure (SMILES) |
| --- | --- |
| 0.25 to 0.5 | COC(=O)c1ccc2c(c1)[nH]c1ncnc(NCCCN3CCCCC3)c12 [Cmpd 2] |
| 0.1 to 0.25 | COC(=O)c1ccc2c(c1)[nH]c1ncnc(NCCCN3CCCC3)c12 [Cmpd 9] |
| 0.5 to 1 | COC(=O)c1ccc2c(c1)[nH]c1ncnc(NCCCN(C)C)c12 [Cmpd 12] |
| 0.25 to 0.5 | COC(=O)c1ccc2c(c1)[nH]c1ncnc(NCCN3CCCCC3)c12 [Cmpd 13] |
| 0.1 to 0.25 | COC(=O)c1ccc2c(c1)[nH]c1ncnc(NCCCN3CCCCC3C)c12 (stereo not drawn) [Cmpd 14] |
| 0.25 to 0.5 | COC(=O)c1ccc2c(c1)[nH]c1ncnc(NCCCN)c12 [Cmpd 15] |
| 0.25 to 0.5 | COC(=O)c1ccc2c(c1)[nH]c1ncnc(NCC(O)CN3CCCCC3)c12 (stereo not drawn) [Cmpd 16] |
| 0.5 to 1 | COC(=O)c1ccc2c(c1)[nH]c1ncnc(NC3CCNCC3)c12 [Cmpd 17] |
| 0.25 to 0.5 | COC(=O)c1ccc2c(c1)[nH]c1ncnc(NCCC3CCNCC3)c12 [Cmpd 18] |
| > 1 | COC(=O)c1ccc2c(c1)[nH]c1ncnc(NCCCN3CCOCC3)c12 [Cmpd 19] |
| 0.1 to 0.25 | Cn1nnc(-c2ccc3c(c2)[nH]c2ncnc(NCCCN4CCCCC4)c23)n1 [Cmpd 21] |
| < 0.1 | COC(=O)c1ccc2c(c1)[nH]c1nc(Cc3cccnc3)nc(NCCCN3CCCCC3)c12 [Cmpd 22] |
| 0.25 to 0.5 | COC(=O)c1ccc2c(c1)[nH]c1nc(Cc3ccncc3)nc(NCCCN3CCCCC3)c12 [Cmpd 23] |
| 0.5 to 1 | COC(=O)c1ccc2c(c1)[nH]c1nc(Cc3cnccn3)nc(NCCCN3CCCCC3)c12 [Cmpd 24] |
| < 0.1 | COC(=O)c1ccc2c(c1)[nH]c1nc(Cc3cc(Br)cc(I)c3)nc(NCCCN3CCCCC3)c12 [Cmpd 26] |
| < 0.1 | COC(=O)c1ccc2c(c1)[nH]c1nc(C(OC)c3ccccc3)nc(NCCCN3CCCCC3)c12 (stereo not drawn) [Cmpd 28] |

| EC50 [µM] | Structure (SMILES) |
| --- | --- |
| < 0.1 | COC(=O)c1ccc2c(c1)[nH]c1nc(Cc3cccc(C4(C(F)(F)F)N=N4)c3)nc(NCCCN3CCCCC3)c12 [Cmpd 32] |
| < 0.1 | COC(=O)c1ccc2c(c1)[nH]c1nc(Cc3ccc(C)cc3)nc(NCCCN3CCCCC3)c12 [Cmpd 37] |
| < 0.1 | COC(=O)c1ccc2c(c1)[nH]c1nc(Cc3cccc(OC)c3)nc(NCCCN3CCCCC3)c12 [Cmpd 38] |
| < 0.1 | COC(=O)c1ccc2c(c1)[nH]c1nc(Cc3cccc(C(=O)C(F)(F)F)c3)nc(NCCCN3CCCCC3)c12 [Cmpd 39] |
| < 0.1 | Cn1nnc(-c2ccc3c(c2)[nH]c2nc(Cc4ccccc4)nc(NCCCN4CCCCC4)c23)n1 [Cmpd 41] |
| 0.5 to 1 | COC(=O)c1ccc2c(c1)[nH]c1nc(Cc3ccccc3)nc(OCCCN3CCCCC3)c12 [Cmpd 47] |
| < 0.1 | COC(=O)c1ccc2c(c1)[nH]c1nc(Cc3ccccc3)nc(NCCCN(C)CCOCCOCCO)c12 [Cmpd 49] |
| < 0.1 | COC(=O)c1ccc2c(c1)[nH]c1nc(Cc3ccccc3)nc(NCC(O)CN3CCCCC3)c12 (stereo not drawn) [Cmpd 51] |
| < 0.1 | C#CCOC(CNc1nc(Cc2ccccc2)nc2[nH]c3cc(C(=O)OC)ccc3c12)CN1CCCCC1 (stereo not drawn) [Cmpd 52] |
| > 1 | CCN(CCCN1CCCCC1)c1nc(Cc2ccccc2)nc2[nH]c3cc(C(=O)OC)ccc3c12 [Cmpd 53] |
| > 1 | COC(=O)c1ccc2c(c1)[nH]c1nc(C)nc(NCCCN3CCCCC3)c12 [Cmpd 58] |
| > 1 | CNC(=O)c1ccc2c(c1)[nH]c1nc(Cc3ccccc3)nc(NCCCN3CCCCC3)c12 [Cmpd 59] |
| 0.25 to 0.5 | COC(=O)c1cnc2c(c1)[nH]c1nc(Cc3ccsc3)nc(NCCCN3CCCCC3)c12 [Cmpd 61] |
| 0.5 to 1 | COC(=O)c1cnc2c(c1)[nH]c1nc(Cc3ccsc3)nc(SCCCN3CCCCC3)c12 [Cmpd 62] |
| 0.25 to 0.5 | COC(=O)c1cnc2c(c1)[nH]c1nc(Cc3cccc(OC)c3)nc(NCCCN3CCCCC3C)c12 (stereo not drawn) [Cmpd 63] |
| 0.5 to 1 | CCN(CC)CCNc1nc(Cc2cccc(OC)c2)nc2[nH]c3cc(C(=O)OC)cnc3c12 [Cmpd 64] |

same assay, conditions: concentration that results in a 50% increase in CD34+CD45RA- cell count compared to vehicle cultures (DMSO)

| Structure (SMILES) | Biological data (EC50)* |
| --- | --- |
| COC(=O)c1ccc2c(c1)[nH]c1nc(C(O)c3ccccc3)nc(NCCCN3CCCCC3)c12 (stereo not drawn) [Cmpd 29] | F (F = compound showed >1.3 fold expansion) |
| COC(=O)c1ccc2c(c1)[nH]c1nc(C(=O)c3ccccc3)nc(NCCCN3CCCCC3)c12 [Cmpd 30] | F (F = compound showed >1.3 fold expansion) |
| CCOC(=O)c1ccc2c(c1)[nH]c1nc(Cc3ccccc3)nc(NCCCN3CCCCC3)c12 [Cmpd 33] | F (F = compound showed >1.3 fold expansion) |
| Cc1noc(-c2ccc3c(c2)[nH]c2nc(Cc4ccccc4)nc(NCCCN4CCCCC4)c23)n1.Cl [Cmpd 42] | F (F = compound showed >1.3 fold expansion) |
| COC(=O)c1ccc2c(c1)[nH]c1nc(Cc3ccccc3)nc(CCCCN3CCCCC3)c12 [Cmpd 48] | F (F = compound showed >1.3 fold expansion) |
| C#CCNCCCN(C)CCCNc1nc(Cc2ccccc2)nc2[nH]c3cc(C(=O)OC)ccc3c12 [Cmpd 54] | F (F = compound showed >1.3 fold expansion) |
| COC(=O)c1ccc2c(c1)[nH]c1nc(Cc3cccc(C4(C(F)(F)F)N=N4)c3)nc(NCCCN(C)CCCNC(=O)CCCCC3SCC4NC(=O)NC43)c12 (stereo not drawn) [Cmpd 57] | F (F = compound showed >1.3 fold expansion) |

same assay, conditions: concentration that results in a 50% increase in CD34+CD45RA- cell count compared to vehicle cultures (DMSO); read-out: Biological data (EC50)*

| EC50 [µM] | Structure (SMILES) |
| --- | --- |
| 0.1 to 0.25 | COC(=O)c1ccc2c(c1)[nH]c1ncnc(NC3CCC(N)CC3)c12 (stereo not drawn) [Cmpd 44] |
| 0.25 to 0.5 | COC(=O)c1ccc2c(c1)[nH]c1ncnc(NC3CCC(N)CC3)c12 (stereo not drawn) [Cmpd 45] |
